Measured values published in patent US8022102B2, “Unsaturated tetracyclic tetrahydrofuran derivatives” (Janssen Pharmaceutica, NV, priority 2004, dated 2011).

These compounds were tested against T1, human cloned 5-HT2C receptor (Homo sapiens, UniProt P28335) (assay: In vitro binding affinity for 5-HT2C receptor (radioligand binding)). Details: human cloned 5-HT2C receptor expressed in CHO cells, [3H]mesulergine; read-out: h-5HT2C (converted).
T1 construct: expressed in transfected cells; host or cells: CHO cells
T1 sequence (P28335 33-458): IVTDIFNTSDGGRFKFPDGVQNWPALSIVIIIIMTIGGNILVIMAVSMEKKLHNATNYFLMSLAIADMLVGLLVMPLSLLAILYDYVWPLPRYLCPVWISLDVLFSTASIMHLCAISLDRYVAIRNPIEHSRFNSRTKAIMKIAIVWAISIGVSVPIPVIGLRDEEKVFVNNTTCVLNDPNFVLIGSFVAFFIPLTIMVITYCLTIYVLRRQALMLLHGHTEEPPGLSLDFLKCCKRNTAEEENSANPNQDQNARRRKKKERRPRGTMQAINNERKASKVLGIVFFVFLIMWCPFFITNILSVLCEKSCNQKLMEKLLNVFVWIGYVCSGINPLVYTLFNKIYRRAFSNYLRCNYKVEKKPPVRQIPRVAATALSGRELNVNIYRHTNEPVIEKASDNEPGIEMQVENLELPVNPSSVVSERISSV
Method: (§1) During the incubation, the radioligands bind to the receptor. When equilibrium of binding is reached, the receptor bound radioactivity is separated from the non-bound radioactivity, and the receptor bound activity is counted. The interaction of the test compounds with the receptors is assessed in competition binding experiments. Various concentrations of the test compound are added to the incubation mixture containing the tissue preparation and the radioligand. Binding of the radioligand will be inhibited by the test compound in proportion to its binding affinity and its concentration.

Row | Compound | IC50 [nM]
1 | CNC[C@@H]1CC2=C(O1)c1cc(F)ccc1Cc1ccccc12 [Compound 4] | 0.631

Same assay, conditions: human cloned 5-HT2C receptor, radioligand binding; read-out: h-5HT2C (converted)

Row | Compound | IC50 [nM]
2 | CNC[C@@H]1CC2=C(O1)c1ccccc1[C@@H](C)c1ccccc12 (racemic) [Compound 9] | 50.1
3 | CCNCC1CC2=C(O1)c1cc(F)ccc1Cc1ccccc12 (single isomer, unassigned) [Compound 15] | 0.794
4 | CCNCC1CC2=C(O1)c1cc(F)ccc1Cc1ccccc12 (single isomer, unassigned) [Compound 16] | 12.6
5 | CNCC1CC2=C(O1)c1cc(F)ccc1Cc1ccccc12 (stereo not shown) [Compound 2] | 1
6 | CNC[C@H]1CC2=C(O1)c1cc(F)ccc1Cc1ccccc12 [Compound 3] | 6.31
7 | CNC[C@@H]1CC2=C(O1)c1cc(F)ccc1Cc1ccccc12 [Compound 4] | 0.631
8 | CNCC1CC2=C(O1)c1ccccc1C(C)c1ccccc12 (stereo not shown) [Compound 7] | 20
9 | CNCC1CC2=C(O1)c1ccccc1C(C)c1ccccc12 (stereo not shown) [Compound 10] | 25.1
10 | C=C1c2ccccc2C2=C(OC(CNC)C2)c2ccccc21 (stereo not shown) [Compound 11] | 20
11 | CNCC1CC2=C(O1)c1cc(F)ccc1Oc1ccccc12 (stereo not shown) [Compound 12] | 7.94
12 | CCNCC1CC2=C(O1)c1cc(Br)ccc1Cc1ccccc12 (stereo not shown) [Compound 17] | 1.26
13 | OCCNCC1CC2=C(O1)c1cc(Br)ccc1Cc1ccccc12 (stereo not shown) [Compound 20] | 1.58
14 | CN(C)CC1CC2=C(O1)c1cc(Br)ccc1Cc1ccccc12 (stereo not shown) [Compound 21] | 0.794
15 | CN(C)CC1CC2=C(O1)c1ccccc1N(C)c1ccccc12 (stereo not shown) [Compound 29] | 126
16 | CN(C)C1CCN(CC2CC3=C(O2)c2cc(F)ccc2Cc2ccccc23)C1 (stereo not shown) [Compound 35] | 15.8
17 | Fc1ccc2c(c1)C1=C(CC(CN3CCC4(CC3)OCCO4)O1)c1ccccc1C2 (stereo not shown) [Compound 39] | 50.1
18 | Fc1ccc2c(c1)C1=C(CC(CN3CCOCC3)O1)c1ccccc1C2 (stereo not shown) [Compound 43] | 20
19 | CS(=O)(=O)N1CCN(CC2CC3=C(O2)c2cc(F)ccc2Cc2ccccc23)CC1 (stereo not shown) [Compound 44] | 50.1
20 | CCS(=O)(=O)N1CCN(CC2CC3=C(O2)c2cc(F)ccc2Cc2ccccc23)CC1 (stereo not shown) [Compound 46] | 200

Each compound was assayed against T2, NET (Rattus norvegicus, UniProt Q9WTR4) (assay: In vitro determination of NET reuptake inhibition ([3H]Nixosetine binding, rat brain cortex)). Details: rat brain cortex, [3H]Nixosetine; read-out: NET Reuptake Inhibition (converted).
T2 construct: Cortex from rat brain was collected and homogenised; from tissue; host or cells: rat brain cortex
T2 sequence (Q9WTR4 1-597): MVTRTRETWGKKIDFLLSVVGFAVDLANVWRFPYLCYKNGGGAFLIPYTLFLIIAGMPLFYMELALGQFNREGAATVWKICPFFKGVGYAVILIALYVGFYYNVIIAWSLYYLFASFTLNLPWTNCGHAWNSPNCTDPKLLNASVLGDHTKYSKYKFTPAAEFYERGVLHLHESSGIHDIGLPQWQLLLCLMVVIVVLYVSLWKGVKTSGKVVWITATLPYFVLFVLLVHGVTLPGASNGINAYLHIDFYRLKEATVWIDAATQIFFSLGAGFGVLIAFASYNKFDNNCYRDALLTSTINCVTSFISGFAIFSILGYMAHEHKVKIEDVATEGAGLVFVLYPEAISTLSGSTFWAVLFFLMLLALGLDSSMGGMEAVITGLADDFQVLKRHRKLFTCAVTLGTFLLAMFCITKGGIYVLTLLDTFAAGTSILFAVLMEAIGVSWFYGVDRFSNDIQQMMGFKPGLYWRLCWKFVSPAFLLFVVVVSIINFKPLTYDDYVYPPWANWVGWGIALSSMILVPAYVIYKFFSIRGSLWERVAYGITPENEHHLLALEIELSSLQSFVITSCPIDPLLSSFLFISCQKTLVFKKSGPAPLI
Method: Cortex from rat brain was collected and homogenised using an Ultra-Turrax T25 and a Dual homogeniser in ice-cold homogenising buffer containing Tris, NaCl and KCl (50 mM, 120 mM and 5 mM, respectively, pH 7.4) prior to dilution to an appropriate protein concentration optimised for specific and non-specific binding. […] Membrane-bound activity was detected by filtration through a Packard Filtermate harvester onto GF/B Unifilterplates, washed with ice-cold Tris-HCl buffer, containing NaCl and KCl (50 mM, 120 mM and 4 mM; pH 7.4; 6×0.5 ml). Filters were allowed to dry for 24 h before adding scintillation fluid. Scintillation fluid was allowed to saturate filters for 24 h before counting in a Topcount scintillation counter. Percentage specific bound and competition binding curves were calculated using S-Plus software (Insightful).

Row | Compound | IC50 [nM]
21 | CNC[C@@H]1CC2=C(O1)c1ccccc1[C@@H](C)c1ccccc12 (racemic) [Compound 9] | 79.4
22 | CCNCC1CC2=C(O1)c1cc(F)ccc1Cc1ccccc12 (single isomer, unassigned) [Compound 15] | 3.16
23 | CCNCC1CC2=C(O1)c1cc(F)ccc1Cc1ccccc12 (single isomer, unassigned) [Compound 16] | 158
24 | CNCC1CC2=C(O1)c1cc(F)ccc1Cc1ccccc12 (stereo not shown) [Compound 2] | 15.8
25 | CNC[C@H]1CC2=C(O1)c1cc(F)ccc1Cc1ccccc12 [Compound 3] | 15.8
26 | CNC[C@@H]1CC2=C(O1)c1cc(F)ccc1Cc1ccccc12 [Compound 4] | 10
27 | CNCC1CC2=C(O1)c1ccccc1C(C)c1ccccc12 (stereo not shown) [Compound 7] | 63.1
28 | CNCC1CC2=C(O1)c1ccccc1C(C)c1ccccc12 (stereo not shown) [Compound 10] | 50.1
29 | C=C1c2ccccc2C2=C(OC(CNC)C2)c2ccccc21 (stereo not shown) [Compound 11] | 25.1
30 | CNCC1CC2=C(O1)c1cc(F)ccc1Oc1ccccc12 (stereo not shown) [Compound 12] | 39.8
31 | CCNCC1CC2=C(O1)c1cc(Br)ccc1Cc1ccccc12 (stereo not shown) [Compound 17] | 100
32 | OCCNCC1CC2=C(O1)c1cc(Br)ccc1Cc1ccccc12 (stereo not shown) [Compound 20] | 501
33 | CN(C)CC1CC2=C(O1)c1cc(Br)ccc1Cc1ccccc12 (stereo not shown) [Compound 21] | 251
34 | CN(C)CC1CC2=C(O1)c1ccccc1N(C)c1ccccc12 (stereo not shown) [Compound 29] | 79.4
35 | CN(C)C1CCN(CC2CC3=C(O2)c2cc(F)ccc2Cc2ccccc23)C1 (stereo not shown) [Compound 35] | > 10000
36 | Fc1ccc2c(c1)C1=C(CC(CN3CCC4(CC3)OCCO4)O1)c1ccccc1C2 (stereo not shown) [Compound 39] | > 10000
37 | Fc1ccc2c(c1)C1=C(CC(CN3CCOCC3)O1)c1ccccc1C2 (stereo not shown) [Compound 43] | 1580
38 | CS(=O)(=O)N1CCN(CC2CC3=C(O2)c2cc(F)ccc2Cc2ccccc23)CC1 (stereo not shown) [Compound 44] | > 10000
39 | CCS(=O)(=O)N1CCN(CC2CC3=C(O2)c2cc(F)ccc2Cc2ccccc23)CC1 (stereo not shown) [Compound 46] | > 10000

What follows are compounds tested against T3, human cloned 5-HT2A receptor (Homo sapiens, UniProt P28223) (assay: In vitro binding affinity for 5-HT2A receptor (radioligand binding)). Details: human cloned 5-HT2A receptor expressed in L929 cells, [125I]R91150; read-out: h-5HT2A (converted).
T3 construct: expressed in transfected cells; host or cells: L929 cells
T3 sequence (P28223 whole entry): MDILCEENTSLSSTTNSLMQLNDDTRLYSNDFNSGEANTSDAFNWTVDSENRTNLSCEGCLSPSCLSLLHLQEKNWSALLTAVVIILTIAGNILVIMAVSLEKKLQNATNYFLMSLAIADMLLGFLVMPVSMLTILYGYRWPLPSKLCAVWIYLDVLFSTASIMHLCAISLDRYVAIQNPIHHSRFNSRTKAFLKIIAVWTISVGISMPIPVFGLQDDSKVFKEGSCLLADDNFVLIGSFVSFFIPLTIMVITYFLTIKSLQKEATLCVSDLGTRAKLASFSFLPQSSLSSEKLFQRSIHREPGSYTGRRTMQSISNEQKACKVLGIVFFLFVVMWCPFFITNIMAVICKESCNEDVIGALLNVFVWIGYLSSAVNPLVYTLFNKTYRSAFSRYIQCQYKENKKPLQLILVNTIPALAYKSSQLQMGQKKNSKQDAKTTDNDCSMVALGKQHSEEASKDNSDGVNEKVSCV
Method: as §1, with “concentration. The affinities of the compounds for the 5-HT2 receptors were measured by means of radioligand binding studies conducted with: (a) human cloned 5-HT2A receptor, expressed in L929 cells using [^125I]R91150 as radioligand and (b) human cloned 5-HT2C receptor, expressed in CHO cells using [^3H]mesulergine as radioligand.” for “concentration.”

Row | Compound | IC50 [nM]
40 | CNC[C@@H]1CC2=C(O1)c1cc(F)ccc1Cc1ccccc12 [Compound 4] | 0.501

Same assay, conditions: human cloned 5-HT2A receptor, radioligand binding; read-out: h-5HT2A (converted)

Row | Compound | IC50 [nM]
41 | CNC[C@@H]1CC2=C(O1)c1ccccc1[C@@H](C)c1ccccc12 (racemic) [Compound 9] | 100
42 | CNCC1CC2=C(O1)c1cc(F)ccc1Cc1ccccc12 (stereo not shown) [Compound 2] | 0.631
43 | CNC[C@H]1CC2=C(O1)c1cc(F)ccc1Cc1ccccc12 [Compound 3] | 6.31
44 | CNC[C@@H]1CC2=C(O1)c1cc(F)ccc1Cc1ccccc12 [Compound 4] | 0.501
45 | CNCC1CC2=C(O1)c1ccccc1C(C)c1ccccc12 (stereo not shown) [Compound 7] | 50.1
46 | C=C1c2ccccc2C2=C(OC(CNC)C2)c2ccccc21 (stereo not shown) [Compound 11] | 39.8
47 | CNCC1CC2=C(O1)c1cc(F)ccc1Oc1ccccc12 (stereo not shown) [Compound 12] | 12.6
48 | CN(C)CC1CC2=C(O1)c1ccccc1N(C)c1ccccc12 (stereo not shown) [Compound 29] | 316

The compounds below were run against T4, human Dopamine D2L receptor (Homo sapiens, UniProt P14416) (assay: In vitro binding affinity for human D2L receptor ([3H]Spiperone)). Details: human D2L receptor-transfected CHO cell membranes, [3H]Spiperone; read-out: h-D2L (converted).
T4 construct: expressed in transfected cells; host or cells: CHO cells
T4 sequence (P14416 whole entry): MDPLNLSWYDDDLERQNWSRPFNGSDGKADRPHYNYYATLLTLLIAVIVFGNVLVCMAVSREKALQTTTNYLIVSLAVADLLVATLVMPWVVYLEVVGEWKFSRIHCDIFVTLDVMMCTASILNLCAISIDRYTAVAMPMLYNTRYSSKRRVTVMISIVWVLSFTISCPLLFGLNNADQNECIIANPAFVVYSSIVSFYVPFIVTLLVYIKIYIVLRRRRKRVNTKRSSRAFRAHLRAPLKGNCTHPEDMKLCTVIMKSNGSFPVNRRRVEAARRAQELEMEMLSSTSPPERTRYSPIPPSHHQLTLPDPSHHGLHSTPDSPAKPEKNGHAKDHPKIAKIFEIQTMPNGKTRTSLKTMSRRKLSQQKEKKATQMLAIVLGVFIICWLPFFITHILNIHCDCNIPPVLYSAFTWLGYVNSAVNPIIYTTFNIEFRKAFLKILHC
Method: Frozen membranes of human Dopamine D2L receptor-transfected CHO cells were thawed, briefly homogenised using an Ultra-Turrax T25 homogeniser and diluted in Tris-HCl assay buffer containing NaCl, CaCl2, MgCl2, KCl (50, 120, 2, 1, and 5 mM respectively, adjusted to pH 7.7 with HCl) to an appropriate protein concentration optimised for specific and non-specific binding. Radioligand [^3H]Spiperone (NEN, specific activity ˜70 Ci/mmol) was diluted in assay buffer at a concentration of 2 nmol/L. Prepared radioligand (50 μl), along with 50 μl of either the 10% DMSO control, Butaclamol (10^−6 mol/l final concentration), or compound of interest, was then incubated (30 min, 37° C.) with 400 μl of the prepared membrane solution. Membrane-bound activity was filtered through a Packard Filtermate harvester onto GF/B Unifilterplates and washed with ice-cold Tris-HCl buffer (50 mM; pH 7.7; 6×0.5 ml). Filters were allowed to dry before adding scintillation fluid and counting in a Topcount scintillation counter. Percentage specific bound and competition binding curves were calculated using S-Plus software (Insightful).

Row | Compound | IC50 [nM]
49 | CNC[C@@H]1CC2=C(O1)c1ccccc1[C@@H](C)c1ccccc12 (racemic) [Compound 9] | 3980
50 | CCNCC1CC2=C(O1)c1cc(F)ccc1Cc1ccccc12 (single isomer, unassigned) [Compound 15] | 39.8
51 | CCNCC1CC2=C(O1)c1cc(F)ccc1Cc1ccccc12 (single isomer, unassigned) [Compound 16] | 316
52 | CNCC1CC2=C(O1)c1cc(F)ccc1Cc1ccccc12 (stereo not shown) [Compound 2] | 79.4
53 | CNC[C@H]1CC2=C(O1)c1cc(F)ccc1Cc1ccccc12 [Compound 3] | 398
54 | CNC[C@@H]1CC2=C(O1)c1cc(F)ccc1Cc1ccccc12 [Compound 4] | 63.1
55 | CNCC1CC2=C(O1)c1ccccc1C(C)c1ccccc12 (stereo not shown) [Compound 7] | 2000
56 | CNCC1CC2=C(O1)c1ccccc1C(C)c1ccccc12 (stereo not shown) [Compound 10] | 1580
57 | C=C1c2ccccc2C2=C(OC(CNC)C2)c2ccccc21 (stereo not shown) [Compound 11] | 1580
58 | CNCC1CC2=C(O1)c1cc(F)ccc1Oc1ccccc12 (stereo not shown) [Compound 12] | 200
59 | CCNCC1CC2=C(O1)c1cc(Br)ccc1Cc1ccccc12 (stereo not shown) [Compound 17] | 25.1
60 | OCCNCC1CC2=C(O1)c1cc(Br)ccc1Cc1ccccc12 (stereo not shown) [Compound 20] | 31.6
61 | CN(C)CC1CC2=C(O1)c1cc(Br)ccc1Cc1ccccc12 (stereo not shown) [Compound 21] | 15.8
62 | CN(C)CC1CC2=C(O1)c1ccccc1N(C)c1ccccc12 (stereo not shown) [Compound 29] | 6310
63 | CN(C)C1CCN(CC2CC3=C(O2)c2cc(F)ccc2Cc2ccccc23)C1 (stereo not shown) [Compound 35] | 39.8
64 | Fc1ccc2c(c1)C1=C(CC(CN3CCC4(CC3)OCCO4)O1)c1ccccc1C2 (stereo not shown) [Compound 39] | 50.1
65 | Fc1ccc2c(c1)C1=C(CC(CN3CCOCC3)O1)c1ccccc1C2 (stereo not shown) [Compound 43] | 79.4
66 | CS(=O)(=O)N1CCN(CC2CC3=C(O2)c2cc(F)ccc2Cc2ccccc23)CC1 (stereo not shown) [Compound 44] | 158
67 | CCS(=O)(=O)N1CCN(CC2CC3=C(O2)c2cc(F)ccc2Cc2ccccc23)CC1 (stereo not shown) [Compound 46] | 501
